Source: patent US20090306133A1, “New Acetyl Coenzyme A Carboxylase (ACC) Inhibitors And Uses In Treatments Of Obesity And Diabetes Mellitus - 087” (ASTRAZENECA AB, priority 2007, published 2009)

Legend:
[1] = molecular target: Human recombinant Acetyl-CoA Carboxylase 2 (ACC2) (Homo sapiens, UniProt O00763); assay: Assay Y: ACC2 inhibition, inorganic phosphate (Malachite Green); assay type: biochemical; conditions: Assay Y: room temperature, 3 hr, 15 min preincubation
Experimental: (§1) Preincubation of 6 μL enzyme together with 0.3 μL compound for 15 min was done before the reaction was initiated by the addition of 4 μL substrate. […] After 3 hr the reaction was stopped by addition of 60 μL of water followed by 30 μL Malachite Green solution. The Malachite Green solution was prepared by mixing 16.4 mL ammonium molybdate solution (7.5%), 1.64 mL Tween (11%) with 82 mL Malachite Green/H2SO4-solution (0.7 g Malachite Green to 1000 mL of 10% (v/v) H2SO4). Plates were left for 10 min at room temperature before reading the absorbance at 670 nm. All compounds were tested in triplicate at 10 different concentrations. Control compound (0, 50 and 100% effect) was included on each plate. […] An IC50 value was derived by non-linear regression curve fitting using the following equation: […]))) where A is the non-specific binding, B is the total binding, C is the IC50 and D is the slope. Saturation binding Kd and Bmax were derived using the equation y=((B1 max*x)/(Kd+x)).

[2] = molecular target: Human recombinant Acetyl-CoA Carboxylase 1 (ACC1) (Homo sapiens, UniProt Q13085); assay: Assay Y: ACC1 inhibition, inorganic phosphate (Malachite Green); assay type: biochemical; conditions: Assay Y: room temperature, 3 hr, 15 min preincubation
Experimental: as §1

Human recombinant Acetyl-CoA Carboxylase 2 (ACC2), sequence (O00763 whole entry): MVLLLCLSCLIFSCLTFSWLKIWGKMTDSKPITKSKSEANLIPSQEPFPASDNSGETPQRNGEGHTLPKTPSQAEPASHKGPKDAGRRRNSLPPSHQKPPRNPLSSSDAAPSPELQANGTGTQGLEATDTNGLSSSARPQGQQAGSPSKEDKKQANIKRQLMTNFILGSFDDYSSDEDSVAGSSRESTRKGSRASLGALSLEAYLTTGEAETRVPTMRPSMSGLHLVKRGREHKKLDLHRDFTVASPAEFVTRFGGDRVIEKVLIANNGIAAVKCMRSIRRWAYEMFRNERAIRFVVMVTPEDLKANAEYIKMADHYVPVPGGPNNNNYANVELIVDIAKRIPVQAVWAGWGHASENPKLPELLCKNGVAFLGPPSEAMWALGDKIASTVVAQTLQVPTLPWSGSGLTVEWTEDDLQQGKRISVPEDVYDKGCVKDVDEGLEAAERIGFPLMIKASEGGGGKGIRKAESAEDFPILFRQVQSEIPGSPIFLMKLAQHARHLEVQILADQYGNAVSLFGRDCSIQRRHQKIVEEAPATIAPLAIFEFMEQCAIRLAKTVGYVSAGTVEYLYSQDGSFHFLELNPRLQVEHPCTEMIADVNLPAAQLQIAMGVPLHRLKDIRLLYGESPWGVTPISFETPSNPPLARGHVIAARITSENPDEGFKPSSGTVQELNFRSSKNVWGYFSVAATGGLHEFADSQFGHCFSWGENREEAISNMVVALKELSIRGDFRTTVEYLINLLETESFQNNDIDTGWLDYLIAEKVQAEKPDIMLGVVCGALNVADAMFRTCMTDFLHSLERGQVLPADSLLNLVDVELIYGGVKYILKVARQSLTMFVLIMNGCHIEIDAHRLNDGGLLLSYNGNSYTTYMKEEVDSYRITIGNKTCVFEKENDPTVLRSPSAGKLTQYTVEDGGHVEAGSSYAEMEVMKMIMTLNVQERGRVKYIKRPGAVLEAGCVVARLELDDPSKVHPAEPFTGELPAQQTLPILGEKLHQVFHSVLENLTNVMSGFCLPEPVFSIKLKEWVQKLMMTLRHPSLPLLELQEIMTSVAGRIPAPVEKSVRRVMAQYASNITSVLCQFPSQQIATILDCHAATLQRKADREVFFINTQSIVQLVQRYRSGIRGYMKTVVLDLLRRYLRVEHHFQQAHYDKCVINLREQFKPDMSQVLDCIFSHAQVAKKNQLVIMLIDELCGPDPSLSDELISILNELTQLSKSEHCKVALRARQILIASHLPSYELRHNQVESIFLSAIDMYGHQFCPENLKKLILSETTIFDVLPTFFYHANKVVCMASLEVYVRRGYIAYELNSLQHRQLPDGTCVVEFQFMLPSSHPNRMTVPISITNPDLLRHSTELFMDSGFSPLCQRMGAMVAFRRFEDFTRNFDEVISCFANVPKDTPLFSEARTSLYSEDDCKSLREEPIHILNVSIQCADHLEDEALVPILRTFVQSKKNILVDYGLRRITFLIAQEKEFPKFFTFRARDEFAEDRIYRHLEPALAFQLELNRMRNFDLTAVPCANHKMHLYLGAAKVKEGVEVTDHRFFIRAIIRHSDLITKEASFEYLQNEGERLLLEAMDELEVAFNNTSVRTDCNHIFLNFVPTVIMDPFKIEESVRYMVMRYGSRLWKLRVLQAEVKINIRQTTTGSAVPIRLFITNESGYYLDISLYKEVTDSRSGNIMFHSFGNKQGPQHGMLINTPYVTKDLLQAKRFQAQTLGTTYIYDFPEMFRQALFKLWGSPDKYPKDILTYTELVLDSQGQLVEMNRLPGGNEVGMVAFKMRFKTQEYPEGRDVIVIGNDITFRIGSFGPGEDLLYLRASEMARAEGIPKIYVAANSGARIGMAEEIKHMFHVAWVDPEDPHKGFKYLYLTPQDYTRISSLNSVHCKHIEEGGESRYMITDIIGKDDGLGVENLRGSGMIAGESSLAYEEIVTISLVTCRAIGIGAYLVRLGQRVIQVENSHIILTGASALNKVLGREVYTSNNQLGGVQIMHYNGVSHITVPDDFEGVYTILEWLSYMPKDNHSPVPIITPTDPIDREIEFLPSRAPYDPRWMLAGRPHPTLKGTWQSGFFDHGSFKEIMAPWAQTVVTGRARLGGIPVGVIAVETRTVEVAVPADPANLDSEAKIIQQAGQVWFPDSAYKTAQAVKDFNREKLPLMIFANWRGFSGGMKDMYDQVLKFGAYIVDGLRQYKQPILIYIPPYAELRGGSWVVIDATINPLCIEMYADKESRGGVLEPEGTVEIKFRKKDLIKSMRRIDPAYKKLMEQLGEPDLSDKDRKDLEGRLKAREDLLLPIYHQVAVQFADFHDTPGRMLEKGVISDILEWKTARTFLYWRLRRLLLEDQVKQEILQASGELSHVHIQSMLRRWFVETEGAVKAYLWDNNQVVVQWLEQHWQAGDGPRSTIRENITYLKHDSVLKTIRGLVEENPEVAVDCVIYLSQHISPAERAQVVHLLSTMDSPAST

CN1CCN(c2ccc(-c3cc(C(=O)NC[C@H]4CC[C@H](CNC(=O)OCC5CCO5)CC4)c4ccccc4n3)cn2)CC1 (relative stereo) [Example 111, Oxetan-2-ylmethyl-[(trans-4-{[({2-[6-(4-methylpiperazin-1-yl)pyridin-3-yl]quinolin-4-yl}carbonyl)amino]methyl}cyclohexyl)methyl]carbamate]
IC50 [1]: 710 nM | IC50 [2]: 3180 nM

CN1CCN(c2ccc(-c3cc(C(=O)NC[C@H]4CC[C@H](CNC(=O)OC5CCOC5)CC4)c4ccccc4n3)cn2)CC1 (relative stereo) [Example 114, Tetrahydrofuran-3-yl-[(trans-4-{[({2-[6-(4-methylpiperazin-1-yl)pyridin-3-yl]quinolin-4-yl}carbonyl)amino]methyl}cyclohexyl)methyl]carbamate]
IC50 [1]: 330 nM | IC50 [2]: 2380 nM

COC[C@H](C)OC(=O)NC[C@H]1CC[C@H](CNC(=O)c2cc(-c3ccc(N4CCN(C)CC4)nc3)nc3ccccc23)CC1 (stereo in doubt) [Example 112, (1S)-2-Methoxy-1-methylethyl[(trans-4-{[({2-[6-(4-methylpiperazin-1-yl)pyridin-3-yl]quinolin-4-yl}carbonyl)amino]methyl}cyclohexyl)methyl]carbamate]
IC50 [1]: 380 nM | IC50 [2]: 2710 nM

COC[C@@H](C)OC(=O)NC[C@H]1CC[C@H](CNC(=O)c2cc(-c3ccc(N4CCN(C)CC4)nc3)nc3ccccc23)CC1 (stereo in doubt) [Example 113, (1R)-2-Methoxy-1-methylethyl[(trans-4-{[({2-[6-(4-methylpiperazin-1-yl)pyridin-3-yl]quinolin-4-yl}carbonyl)amino]methyl}cyclohexyl)methyl]carbamate]
IC50 [1]: 940 nM | IC50 [2]: 7800 nM

CN1CCN(c2ccc(-c3cc(C(=O)NC[C@H]4CC[C@H](CNC(=O)OC(C)(C)C)CC4)c4ccccc4n3)cn2)CC1 [Example 1, tert-butyl [(trans-4-{[({2-[6-(4-methylpiperazin-1-yl)pyridin-3-yl]quinolin-4-yl}carbonyl)amino]methyl}cyclohexyl)methyl]carbamate]
IC50 [1]: 50 nM | IC50 [2]: 200 nM

Cc1[nH]c(=O)ccc1-c1cc(C(=O)NC[C@H]2CC[C@H](CNC(=O)OC(C)(C)C)CC2)c2ccccc2n1 [Example 2, tert-Butyl ({trans-4-[({[2-(2-methyl-6-oxo-1,6-dihydropyridin-3-yl)quinolin-4-yl]carbonyl}amino)methyl]cyclohexyl}methyl)carbamate]
IC50 [1]: 2960 nM | IC50 [2]: > 20000 nM

CC(C)(C)OC(=O)NC[C@H]1CC[C@H](CNC(=O)c2cc(-c3cnccn3)nc3ccccc23)CC1 [Example 3, tert-Butyl {[trans-4-({[(2-pyrazin-2-ylquinolin-4-yl)carbonyl]amino}methyl)cyclohexyl]methyl}carbamate]
IC50 [1]: 650 nM | IC50 [2]: 1520 nM

CCOc1ccc(-c2cc(C(=O)NC[C@H]3CC[C@H](CNC(=O)OC(C)(C)C)CC3)c3ccccc3n2)cc1 [Example 4, tert-Butyl ({trans-4-[({[2-(4-ethoxyphenyl)quinolin-4-yl]carbonyl}amino)methyl]-cyclohexyl}methyl)carbamate]
IC50 [1]: 390 nM | IC50 [2]: 1330 nM

CC(C)(C)OC(=O)NC[C@H]1CC[C@H](CNC(=O)c2cc(-c3ccc(C(N)=O)nc3)nc3ccccc23)CC1 [Example 5, tert-Butyl ({trans-4-[({[2-(6-carbamoylpyridin-3-yl)quinolin-4-yl]carbonyl}amino)-methyl]cyclohexyl}methyl)carbamate]
IC50 [1]: 260 nM | IC50 [2]: 1220 nM

CC(C)(C)OC(=O)NC[C@H]1CC[C@H](CNC(=O)c2cc(-c3ccccc3)nc3ccccc23)CC1 [Example 6, tert-butyl {[trans-4-({[(2-phenylquinolin-4-yl)carbonyl]amino}methyl)cyclohexyl]methyl}carbamate]
IC50 [1]: 240 nM | IC50 [2]: 560 nM

CC(C)(C)OC(=O)NC[C@H]1CC[C@H](CNC(=O)c2cc(-c3ccncc3)nc3ccccc23)CC1 [Example 7, tert-butyl {[trans-4-({[(2-pyridin-4-ylquinolin-4-yl)carbonyl]amino}methyl)cyclohexyl]methyl}-carbamate]
IC50 [1]: 210 nM | IC50 [2]: 1030 nM

CC(C)(C)OC(=O)NC[C@H]1CC[C@H](CNC(=O)c2cc(-c3cccc(C(N)=O)c3)nc3ccccc23)CC1 [Example 8, tert-Butyl ({trans-4-[({[2-(3-carbamoylphenyl)quinolin-4-yl]carbonyl}amino)methyl]-cyclohexyl}methyl)carbamate]
IC50 [1]: 80 nM | IC50 [2]: 310 nM

CC(C)(C)OC(=O)NC[C@H]1CC[C@H](CNC(=O)c2cc(-c3ccc(C(N)=O)cc3)nc3ccccc23)CC1 [Example 9, tert-butyl ({trans-4-[({[2-(4-carbamoylphenyl)quinolin-4-yl]carbonyl}amino)methyl]cyclohexyl}methyl)carbamate]
IC50 [1]: 40 nM | IC50 [2]: 250 nM

CN(C)CCCOc1ccc(-c2cc(C(=O)NC[C@H]3CC[C@H](CNC(=O)OC(C)(C)C)CC3)c3ccccc3n2)cn1 [Example 10, tert-Butyl {[trans-4-({[(2-{6-[3-(dimethylamino)propoxy]pyridin-3-yl}quinolin-4-yl)carbonyl]amino}methyl)cyclohexyl]methyl}carbamate]
IC50 [1]: 40 nM | IC50 [2]: 300 nM

CN(C)c1ccc(-c2cc(C(=O)NC[C@H]3CC[C@H](CNC(=O)OC(C)(C)C)CC3)c3ccccc3n2)cn1 [Example 11, tert-Butyl [(trans-4-{[({2-[6-(dimethylamino)pyridin-3-yl]quinolin-4-yl}carbonyl)-amino]methyl}cyclohexyl)methyl]carbamate]
IC50 [1]: 100 nM | IC50 [2]: 1220 nM

CC(C)(C)OC(=O)NC[C@H]1CC[C@H](CNC(=O)c2cc(-c3ccc(C(F)(F)F)cc3)nc3ccccc23)CC1 [Example 12, tert-Butyl [(trans-4-{[({2-[4-(trifluoromethyl)phenyl]quinolin-4-yl}carbonyl)amino]-methyl}cyclohexyl)methyl]carbamate]
IC50 [1]: 560 nM | IC50 [2]: > 20000 nM

CC(=O)c1ccc(-c2cc(C(=O)NC[C@H]3CC[C@H](CNC(=O)OC(C)(C)C)CC3)c3ccccc3n2)s1 [Example 13, tert-Butyl ({trans-4-[({[2-(5-acetyl-2-thienyl)quinolin-4-yl]carbonyl}amino)methyl]-cyclohexyl}methyl)carbamate]
IC50 [1]: 160 nM | IC50 [2]: 450 nM

CC(C)(C)OC(=O)NC[C@H]1CC[C@H](CNC(=O)c2cc(-c3ccc(F)cc3)nc3ccccc23)CC1 [Example 14, tert-Butyl ({trans-4-[({[2-(4-fluorophenyl)quinolin-4-yl]carbonyl}amino)methyl]-cyclohexyl}methyl)carbamate]
IC50 [1]: 180 nM | IC50 [2]: 690 nM

Cc1noc(C)c1-c1cc(C(=O)NC[C@H]2CC[C@H](CNC(=O)OC(C)(C)C)CC2)c2ccccc2n1 [Example 15, tert-Butyl ({trans-4-[({[2-(3,5-dimethylisoxazol-4-yl)quinolin-4-yl]carbonyl}amino)-methyl]cyclohexyl}methyl)carbamate]
IC50 [1]: 2870 nM | IC50 [2]: > 20000 nM

CC(C)(C)OC(=O)NC[C@H]1CC[C@H](CNC(=O)c2cc(-c3cccnc3)nc3ccccc23)CC1 [Example 16, tert-Butyl {[trans-4-({[(2-pyridin-3-ylquinolin-4-yl)carbonyl]amino}methyl)cyclo-hexyl]methyl}carbamate]
IC50 [1]: 320 nM | IC50 [2]: 2030 nM

CCOC(=O)NC[C@H]1CC[C@H](CNC(=O)c2cc(-c3ccc(F)cc3)nc3ccccc23)CC1 [Example 17, Ethyl ({trans-4-[({[2-(4-fluorophenyl)quinolin-4-yl]carbonyl}amino)methyl]cyclo-hexyl}methyl)carbamate]
IC50 [1]: 1940 nM | IC50 [2]: > 20000 nM

CCOC(=O)NC[C@H]1CC[C@H](CNC(=O)c2cc(-c3ccc(C(=O)N(C)C)cc3)nc3ccccc23)CC1 [Example 18, Ethyl [(trans-4-{[({2-[4-(dimethylcarbamoyl)phenyl]quinolin-4-yl}carbonyl)amino]-methyl}cyclohexyl)methyl]carbamate]
IC50 [1]: 1800 nM | IC50 [2]: 4850 nM

CCOC(=O)NC[C@H]1CC[C@H](CNC(=O)c2cc(-c3cccc(C(N)=O)c3)nc3ccccc23)CC1 [Example 19, Ethyl ({trans-4-[({[2-(3-carbamoylphenyl)quinolin-4-yl]carbonyl}amino)methyl]-cyclohexyl}methyl)carbamate]
IC50 [1]: 780 nM | IC50 [2]: 1210 nM

Cc1ccc(-c2cc(C(=O)NC[C@H]3CC[C@H](CNC(=O)OC(C)(C)C)CC3)c3ccccc3n2)cc1 [Example 20, tert-Butyl ({trans-4-[({[2-(4-methylphenyl)quinolin-4-yl]carbonyl}amino)methyl]-cyclohexyl}methyl)carbamate]
IC50 [1]: 620 nM | IC50 [2]: 1290 nM

CC(C)(C)OC(=O)NC[C@H]1CC[C@H](CNC(=O)c2cc(-c3ccc(Cl)cc3)nc3ccccc23)CC1 [Example 21, tert-Butyl ({trans-4-[({[2-(4-chlorophenyl)quinolin-4-yl]carbonyl}amino)methyl]cyclo-hexyl}methyl)carbamate]
IC50 [1]: 970 nM | IC50 [2]: 1490 nM

CC(C)(C)OC(=O)NC[C@H]1CC[C@H](CNS(=O)(=O)c2ccc3c(c2)OCCO3)CC1 [Example 69, tert-Butyl [(trans-4-{[(2,3-dihydro-1,4-benzodioxin-6-ylsulfonyl)amino]methyl}cyclo-hexyl)methyl]carbamate]
IC50 [1]: 4760 nM
